Laboratory results reported in patent US20240116951A1, “HETEROCYCLIC COMPOUNDS AND USES THEREOF” (Kumquat Biosciences Inc., priority 2022, published 2024).

Columns and labels:
Format in all cases: binding
KRAS G12D = target: T1, KRAS G12D (Homo sapiens, UniProt P01116, G12D); experiment: HTRF assay of K-Ras G12D interaction with SOS1 (PPI-HTRF); details: HTRF, 5 nM KRAS G12D; read-out: PPI-HTRF-5 nM KRAS G12D
T1 construct: made in house; host or cells: E. coli, e.g. BL21 (DE3)
Description: (§1) This assay can be also used to assess a selective inhibition or reduction of signaling output of a mutant Ras protein relative to a wildtype, or relative to a different mutant Ras protein. For example, the equilibrium interaction of wildtype Kras or K-Ras mutant (e.g., wildtype or a mutant thereof including those mentioned in Example 4) with SOS1 (e.g., hSOS1) can be assessed as a proxy or an indication for a subject compound's ability to bind and inhibit Ras protein. HTRF assay detects from (i) a fluorescence resonance energy transfer (FRET) donor (e.g., antiGST-Europium) that is bound to GST-tagged K-Ras mutant to (ii) a FRET acceptor (e.g., anti-6His-XL665) bound to a His-tagged hSOS1.
(§2) The assay buffer can contain ˜5 mM HEPES pH 7.4, ˜150 mM NaCl, ˜1 mM DTT, 0.05% BSA and 0.0025% (v/v) Igepal. A Ras working solution is prepared in an assay buffer containing typically a suitable amount of the protein construct (e.g., GST-tagged K-Ras mutant) and the FRET donor (e.g., antiGST-Eu(K) from Cisbio, France). A SOS1 working solution is prepared in an assay buffer containing suitable amount of the protein construct (e.g., His-hSOS1) and the FRET acceptor (e.g., anti-6His-XL665 from Cisbio, France). A suitable amount of the protein construct will depend on the range of activity or range of IC50 values being detected or under investigation. For detecting IC50 within a range of 500 nM, the protein constructs of the same range of molarity can be utilized. […] A fixed volume of DMSO with or without test compound is transferred into a 384-well plate. Ras working solution is added to all wells of the test plate. SOS1 working solution is added to all wells except for those that are subsequently filled the inhibitor control solution. Upon incubation for about 10 minutes or longer, the fluorescence is measured with a M1000Pro plate reader (Tecan) using HTRF detection (excitation 337 nm, emission 1: 620 nm, emission 2: 665 nm). Compounds are tested in duplicates at different concentrations (for example, 10 μM, 2.5 μM, 0.63 μM, 0.16 μM, 0.04 μM, 0.01 μM test compound). The ratiometric data (i.e., emission 2 divided by emission 1) is used to calculate IC50 values against Ras using GraphPad Prism (GraphPad software). Following this general procedure, samples were tested with or without a subject compound disclosed herein including compounds exemplified in Table 1 to assess their abilities to inhibit a mutant K-Ras relative to another mutant K-Ras or wildtype K-Ras. Signaling output measured in terms of IC50 values can be obtained, a ratio of IC50 against one mutant relative to another mutant can be calculated. For instance, a selective reduction of K-Ras G12D signaling output can be evidenced by a ratio greater than one. In particular, a selective reduction of K-Ras G12D signaling relative to K-Ras WT signaling is evidenced as the ratio of IC50 (against K-Ras WT) to IC50 (against K-Ras G12D) is greater than 1.

KRAS G12S = target: T2, KRAS G12S (Homo sapiens, UniProt P01116, G12S); experiment: HTRF assay of K-Ras G12S interaction with SOS1 (PPI-HTRF); details: 5 nM KRAS G12S, read-out: PPI-HTRF-5 nM KRAS G12S
T2 construct: made in house; host or cells: E. coli, e.g. BL21 (DE3)
T2 sequence (P01116 1-188 isoform P01116-2 G12S): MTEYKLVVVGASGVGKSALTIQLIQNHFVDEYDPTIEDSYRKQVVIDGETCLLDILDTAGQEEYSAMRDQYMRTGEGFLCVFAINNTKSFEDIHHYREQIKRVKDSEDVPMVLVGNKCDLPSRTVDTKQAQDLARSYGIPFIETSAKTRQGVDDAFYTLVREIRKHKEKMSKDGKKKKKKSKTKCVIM
Description: as §1, §2

KRAS WT = target: T3, KRAS WT (Homo sapiens, UniProt P01116); experiment: HTRF assay of wildtype K-Ras interaction with SOS1 (PPI-HTRF); details: HTRF, 5 nM KRAS WT; read-out: PPI-HTRF-5 nM KRAS WT
T3 construct: made in house; host or cells: E. coli, e.g. BL21 (DE3)
T3 sequence (P01116 1-188 isoform P01116-2): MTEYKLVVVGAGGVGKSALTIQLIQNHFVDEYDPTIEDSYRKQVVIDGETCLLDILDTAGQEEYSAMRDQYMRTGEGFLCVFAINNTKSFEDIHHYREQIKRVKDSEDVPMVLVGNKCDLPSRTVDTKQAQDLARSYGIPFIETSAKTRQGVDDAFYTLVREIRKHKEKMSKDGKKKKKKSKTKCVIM
Description: as §1, §2

Measured: IC50

T1 sequence (P01116 1-188 isoform P01116-2 G12D): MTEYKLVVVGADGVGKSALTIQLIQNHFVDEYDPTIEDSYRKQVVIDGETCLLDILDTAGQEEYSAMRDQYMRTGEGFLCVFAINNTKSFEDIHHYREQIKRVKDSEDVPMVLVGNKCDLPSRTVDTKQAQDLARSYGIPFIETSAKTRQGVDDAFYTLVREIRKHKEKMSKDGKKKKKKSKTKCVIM

C[C@H](Oc1nc(N2CCCC3(CCN3)C2)c2cc(Cl)c(-c3ccc(F)c4sc(N)c(C#N)c34)c(F)c2n1)[C@@H]1CCCN1C (stereo partly drawn) [Compound 210, 2-amino-4-(6-chloro-8-fluoro-2-((S)-1-((S)-1-methylpyrrolidin-2-yl)ethoxy)-4-(1,6-diazaspiro[3.5]nonan-6-yl)quinazolin-7-yl)-7-fluorobenzo[b]thiophene-3-carbonitrile]
< 5 µM: all assays above

Nc1nc2c(-c3c(Cl)cc4c(N5CCCC6(CCCN6C(=O)n6cncn6)C5)nc(OC[C@@]56CCCN5C[C@H](F)C6)nc4c3F)ccc(F)c2s1 (stereo partly drawn) [Compound 211, (7-(7-(2-amino-7-fluorobenzo[d]thiazol-4-yl)-6-chloro-8-fluoro-2-(((2R,7aS)-2-fluorotetrahydro-1H-pyrrolizin-7a(5H)-yl)methoxy)quinazolin-4-yl)-1,7-diazaspiro[4.5]decan-1-yl)(1H-1,2,4-triazol-1-yl)methanone]
< 5 µM: all assays above

N#Cc1c(N)sc2c(F)ccc(-c3c(Cl)cc4c(N5CCC6(CCN6)C5)nc(OC[C@@]56CCCN5C[C@H](F)C6)nc4c3F)c12 (stereo partly drawn) [Compound 212, 2-amino-4-(6-chloro-8-fluoro-2-(((2R,7aS)-2-fluorotetrahydro-1H-pyrrolizin-7a(5H)-yl)methoxy)-4-(1,6-diazaspiro[3.4]octan-6-yl)quinazolin-7-yl)-7-fluorobenzo[b]thiophene-3-carbonitrile]
< 5 µM: all assays above

C[C@H](Oc1nc(N2CCC3(CCN3)C2)c2cc(Cl)c(-c3ccc(F)c4sc(N)c(C#N)c34)c(F)c2n1)[C@@H]1CCCN1C (stereo partly drawn) [Compound 213, 2-amino-4-(6-chloro-8-fluoro-2-((S)-1-((S)-1-methylpyrrolidin-2-yl)ethoxy)-4-(1,6-diazaspiro[3.4]octan-6-yl)quinazolin-7-yl)-7-fluorobenzo[b]thiophene-3-carbonitrile]
< 5 µM: all assays above

Cc1ncn(C(=O)N2CCOCC23CCN(c2nc(OC[C@@]45CCCN4C[C@H](F)C5)nc4c(F)c(-c5ccc(F)c6sc(N)c(C#N)c56)c(Cl)cc24)C3)n1 (stereo partly drawn) [Compound 214, 2-amino-4-(6-chloro-8-fluoro-2-(((2R,7aS)-2-fluorotetrahydro-1H-pyrrolizin-7a(5H)-yl)methoxy)-4-(6-(3-methyl-1H-1,2,4-triazole-1-carbonyl)-9-oxa-2,6-diazaspiro[4.5]decan-2-yl)quinazolin-7-yl)-7-fluorobenzo[b]thiophene-3-carbonitrile]
< 5 µM: all assays above

N#Cc1c(N)sc2c(F)ccc(-c3c(Cl)cc4c(N5CCC6(CCN6C(=O)n6cnc(C(F)F)n6)C5)nc(OC[C@@]56CCCN5C[C@H](F)C6)nc4c3F)c12 (stereo partly drawn) [Compound 215, 2-amino-4-(6-chloro-4-(1-(3-(difluoromethyl)-1H-1,2,4-triazole-1-carbonyl)-1,6-diazaspiro[3.4]octan-6-yl)-8-fluoro-2-(((2R,7aS)-2-fluorotetrahydro-1H-pyrrolizin-7a(5H)-yl)methoxy)quinazolin-7-yl)-7-fluorobenzo[b]thiophene-3-carbonitrile]
< 5 µM: all assays above

N#Cc1c(N)sc2c(F)ccc(-c3c(Cl)cc4c(N5CCC6(CCCCN6C(=O)n6cncn6)C5)nc(OC[C@@]56CCCN5C[C@H](F)C6)nc4c3F)c12 (stereo partly drawn) [Compound 216, 4-(4-(6-(1H-1,2,4-triazole-1-carbonyl)-2,6-diazaspiro[4.5]decan-2-yl)-6-chloro-8-fluoro-2-(((2R,7aS)-2-fluorotetrahydro-1H-pyrrolizin-7a(5H)-yl)methoxy)quinazolin-7-yl)-2-amino-7-fluorobenzo[b]thiophene-3-carbonitrile]
< 5 µM: all assays above
